From ChEMBL document CHEMBL1201862, “PubChem BioAssay data set” (2004)
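Briefly, cells in 96-well plates were exposed to five compound concentrations for 48 h, and endpoints were estimated by linear interpolation. Here, GI50 denotes the concentration required for 50% inhibition of growth.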 The source made the active and inactive calls. Rule as the data show it: active = GI50 up to about 1.1 µM and inactive = higher.

Tests used:
Assay in all cases: NCI tumour cell line growth inhibition, 48 h
786-0 = tested on: 786-0
BT-549 = tested on: BT-549
EKVX = tested on: EKVX
HCT-116 = tested on: HCT-116
HOP-92 = tested on: HOP-92
Hs-578T = tested on: Hs-578T
K562 = tested on: K562
MCF7 = tested on: MCF7
MDA-MB-231 = tested on: MDA-MB-231
NCI-H23 = tested on: NCI-H23
OVCAR-5 = tested on: OVCAR-5
PC-3 = tested on: PC-3
SF-268 = tested on: SF-268
SF-295 = tested on: SF-295
SK-MEL-28 = tested on: SK-MEL-28
SK-MEL-5 = tested on: SK-MEL-5
SN12C = tested on: SN12C
SNB-19 = tested on: SNB-19
U-251 = tested on: U-251

| Structure (SMILES) | GI50 (786-0) | GI50 (BT-549) | GI50 (EKVX) | GI50 (HCT-116) | GI50 (HOP-92) | GI50 (Hs-578T) | GI50 (K562) | GI50 (MCF7) | GI50 (MDA-MB-231) | GI50 (NCI-H23) | GI50 (OVCAR-5) | GI50 (PC-3) | GI50 (SF-268) | GI50 (SF-295) | GI50 (SK-MEL-28) | GI50 (SK-MEL-5) | GI50 (SN12C) | GI50 (SNB-19) | GI50 (U-251) |
| --- | --- | --- | --- | --- | --- | --- | --- | --- | --- | --- | --- | --- | --- | --- | --- | --- | --- | --- | --- |
| O=C1C(c2c(O)[nH]c3ccc(Br)cc23)=Nc2ccc(Br)cc21 | 24 µM (inactive) | 70.6 µM (inactive) | 38.1 µM (inactive) | 18 µM (inactive) | > 100 µM (inactive) | 51.4 µM (inactive) | 43.9 µM (inactive) | 13.6 µM (inactive) | 20 µM (inactive) | 27.5 µM (inactive) | > 100 µM (inactive) | 51.3 µM (inactive) | 33 µM (inactive) | > 100 µM (inactive) | > 100 µM (inactive) | > 100 µM (inactive) | 45.2 µM (inactive) | 30.1 µM (inactive) | 18.7 µM (inactive) |
| O=C(CN(c1ccc(S(=O)(=O)O)cc1)c1ccc(S(=O)(=O)O)cc1)Nn1cnc2ccc(S(=O)(=O)N(c3ccc(S(=O)(=O)O)cc3)c3ccc(S(=O)(=O)O)cc3)cc2c1=O | > 100 µM (inactive) | > 100 µM (inactive) | > 100 µM (inactive) | > 100 µM (inactive) | > 100 µM (inactive) | > 100 µM (inactive) | > 100 µM (inactive) | > 100 µM (inactive) | > 100 µM (inactive) | > 100 µM (inactive) | > 100 µM (inactive) | > 100 µM (inactive) | > 100 µM (inactive) | > 100 µM (inactive) | > 100 µM (inactive) | > 100 µM (inactive) | > 100 µM (inactive) | > 100 µM (inactive) | > 100 µM (inactive) |
| C#CCCCCC#Cc1ccccc1C(=O)C=[N+]=[N-] | > 100 µM (inactive) | > 100 µM (inactive) | > 100 µM (inactive) | > 100 µM (inactive) | > 100 µM (inactive) | > 100 µM (inactive) | 39.8 µM (inactive) | > 100 µM (inactive) | > 100 µM (inactive) | > 100 µM (inactive) | > 100 µM (inactive) | > 100 µM (inactive) | > 100 µM (inactive) | > 100 µM (inactive) | > 100 µM (inactive) | > 100 µM (inactive) | > 100 µM (inactive) | > 100 µM (inactive) | > 100 µM (inactive) |
| COc1cc(Nc2nc3ccccc3nc2C(C)C)cc(OC)c1OC | > 100 µM (inactive) | > 100 µM (inactive) | 42.7 µM (inactive) | > 100 µM (inactive) | 34 µM (inactive) | > 100 µM (inactive) | > 100 µM (inactive) | > 100 µM (inactive) | > 100 µM (inactive) | > 100 µM (inactive) | > 100 µM (inactive) | > 100 µM (inactive) | > 100 µM (inactive) | 82.8 µM (inactive) | > 100 µM (inactive) | > 100 µM (inactive) | > 100 µM (inactive) | > 100 µM (inactive) | > 100 µM (inactive) |
| c1ccc(C2=NN=C3C(c4ccccc4)=Nc4ccccc4N3C2)cc1 | 11.9 µM (inactive) | 32.4 µM (inactive) | 23.6 µM (inactive) | 10.8 µM (inactive) | 29.3 µM (inactive) | 26.6 µM (inactive) | 13.9 µM (inactive) | 20 µM (inactive) | 38.9 µM (inactive) | 47.3 µM (inactive) | 32.2 µM (inactive) | 21.5 µM (inactive) | 9.48 µM (inactive) | – | 34.7 µM (inactive) | 14.1 µM (inactive) | 29.9 µM (inactive) | 24.2 µM (inactive) | 14.3 µM (inactive) |
| CN1Cc2c(ccc3c2OCO3)[C@@H]2[C@H](O)Cc3cc4c(cc3[C@@H]21)OCO4 | 4.09 µM (inactive) | 2.55 µM (inactive) | 4.51 µM (inactive) | 3.4 µM (inactive) | 46.5 µM (inactive) | 3.59 µM (inactive) | 2.61 µM (inactive) | 2.11 µM (inactive) | 3.29 µM (inactive) | 3.31 µM (inactive) | 12.1 µM (inactive) | 2.66 µM (inactive) | 4.82 µM (inactive) | 2.14 µM (inactive) | 4.98 µM (inactive) | 1.41 µM (inactive) | 5.06 µM (inactive) | 3.41 µM (inactive) | 3.19 µM (inactive) |
| COC(=O)C(/C(=N/NC(=O)c1ccncc1)C(=O)Nc1ccccc1OC)c1nc2ccc(Cl)cc2nc1O (stereo not given) | > 100 µM (inactive) | > 100 µM (inactive) | 77.8 µM (inactive) | 83.4 µM (inactive) | > 100 µM (inactive) | > 100 µM (inactive) | 75.9 µM (inactive) | > 100 µM (inactive) | > 100 µM (inactive) | > 100 µM (inactive) | > 100 µM (inactive) | > 100 µM (inactive) | > 100 µM (inactive) | > 100 µM (inactive) | > 100 µM (inactive) | > 100 µM (inactive) | > 100 µM (inactive) | – | > 100 µM (inactive) |
| CCCCC1C=Cn2c(=O)oc3c(OC(C)C)c(C)c(O)c1c32 (stereo not given) | 1.16 µM (inactive) | 2.17 µM (inactive) | 2.48 µM (inactive) | 0.977 µM (active) | 3.05 µM (inactive) | 0.684 µM (active) | 0.91 µM (active) | 0.509 µM (active) | 1.87 µM (inactive) | 1.48 µM (inactive) | 4.78 µM (inactive) | 2.43 µM (inactive) | 0.796 µM (active) | 0.982 µM (active) | 1.19 µM (inactive) | 2 µM (inactive) | 1.37 µM (inactive) | 0.323 µM (active) | 1.14 µM (inactive) |
| C[C@@H]1CC[C@@]2(C)[C@H](C)/C(=C\COC(=O)/C=C/c3ccc(O)c(O)c3)CC[C@@]12C [NAVICULYL CAFFEATE] | 4.37 µM (inactive) | 14.6 µM (inactive) | 15 µM (inactive) | 2.78 µM (inactive) | 14.1 µM (inactive) | 13.2 µM (inactive) | 4.99 µM (inactive) | 2.83 µM (inactive) | 7.83 µM (inactive) | 9.23 µM (inactive) | 18 µM (inactive) | 4.71 µM (inactive) | 9.84 µM (inactive) | 8.87 µM (inactive) | 10.8 µM (inactive) | 5.15 µM (inactive) | 4.55 µM (inactive) | 11.5 µM (inactive) | 5.35 µM (inactive) |
| Cc1ccc(-c2cn3c(nc4ccccc43)c(-c3ccccc3)n2)cc1 | 15.1 µM (inactive) | 32.5 µM (inactive) | > 100 µM (inactive) | 75 µM (inactive) | 20.7 µM (inactive) | 15.3 µM (inactive) | > 100 µM (inactive) | 27.7 µM (inactive) | > 100 µM (inactive) | 24 µM (inactive) | > 100 µM (inactive) | > 100 µM (inactive) | > 45.3 µM (inactive) | 19.8 µM (inactive) | > 100 µM (inactive) | > 100 µM (inactive) | > 100 µM (inactive) | 16.7 µM (inactive) | 18.8 µM (inactive) |
| O=C1CC(NC(=O)C(F)(F)F)c2c(Br)sc(N3CCC(c4ccccc4)CC3)c21 (stereo not given) | 20.8 µM (inactive) | 27.7 µM (inactive) | 43.9 µM (inactive) | 11.1 µM (inactive) | 3.87 µM (inactive) | 20 µM (inactive) | 5.27 µM (inactive) | 18.7 µM (inactive) | 3.73 µM (inactive) | 6.7 µM (inactive) | > 100 µM (inactive) | 25.6 µM (inactive) | 43.4 µM (inactive) | 4.48 µM (inactive) | – | 6.03 µM (inactive) | > 100 µM (inactive) | 20.8 µM (inactive) | 6.76 µM (inactive) |
| COc1ccccc1C1(c2c(OC(C)C)c(=O)c2=O)SCCCS1 | > 100 µM (inactive) | 72.6 µM (inactive) | > 100 µM (inactive) | > 100 µM (inactive) | > 100 µM (inactive) | > 100 µM (inactive) | – | > 100 µM (inactive) | > 100 µM (inactive) | > 100 µM (inactive) | > 100 µM (inactive) | > 100 µM (inactive) | > 100 µM (inactive) | > 100 µM (inactive) | 87.1 µM (inactive) | > 100 µM (inactive) | > 100 µM (inactive) | > 100 µM (inactive) | > 100 µM (inactive) |
| COc1ccc(OC)c(NCC(=O)Nn2cnc3ccc(S(=O)(=O)Nc4cc(OC)ccc4OC)cc3c2=O)c1 | > 100 µM (inactive) | > 100 µM (inactive) | > 100 µM (inactive) | 32.6 µM (inactive) | > 100 µM (inactive) | > 100 µM (inactive) | 44.3 µM (inactive) | > 100 µM (inactive) | > 100 µM (inactive) | 66.7 µM (inactive) | > 100 µM (inactive) | 37.5 µM (inactive) | > 100 µM (inactive) | 70.3 µM (inactive) | > 100 µM (inactive) | – | > 100 µM (inactive) | > 100 µM (inactive) | > 100 µM (inactive) |
| COC(=O)[C@H](CNC(=O)/C=C/c1ccc(OC(C)=O)c(OC(C)=O)c1)NC(=O)/C=C/c1ccc(OC(C)=O)c(OC(C)=O)c1 | > 100 µM (inactive) | > 100 µM (inactive) | > 100 µM (inactive) | > 100 µM (inactive) | > 100 µM (inactive) | > 100 µM (inactive) | > 100 µM (inactive) | > 100 µM (inactive) | > 100 µM (inactive) | > 100 µM (inactive) | > 100 µM (inactive) | > 100 µM (inactive) | > 10 µM (inactive) | – | > 100 µM (inactive) | 62.7 µM (inactive) | > 100 µM (inactive) | > 100 µM (inactive) | > 100 µM (inactive) |
